In test [1] the test system is ASC specks in THP1-ASC-GFP cells. The test is described as follows: ASC speck assay. In kind it is cell-based, human. Conditions: THP-1 ASC GFP, LPS 100 ng/mL + nigericin 10 µM; MM01 10 µM, VX-765 5 µM. On the procedure:
THP1-ASC-GFP cells were seeded at 1×10^6/ml the day prior to use in experiments on 35 mm glass-bottom culture dishes. The following day medium was replaced containing the indicated inhibitors or vehicle for 30 min. Cells were then primed with 100 ng/ml LPS for 3h and stimulated with 10 µM nigericin for 30 min. Samples were fixed in 4% paraformaldehyde (PFA) for 10 min at RT and washed several times. Coverslips were prepared in mounting medium plus DAPI and analyzed in a Leica SP8 confocal microscope.

The next test deals with T1, Recombinant caspase-1 (Homo sapiens, UniProt P29466).
T1 sequence (P29466 120-297 limits assumed): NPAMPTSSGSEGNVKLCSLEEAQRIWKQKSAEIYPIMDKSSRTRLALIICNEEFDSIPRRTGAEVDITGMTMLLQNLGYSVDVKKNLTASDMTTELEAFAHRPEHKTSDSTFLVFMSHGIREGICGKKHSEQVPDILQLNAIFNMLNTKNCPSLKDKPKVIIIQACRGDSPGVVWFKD
T1 sequence (P29466 317-404 limits assumed): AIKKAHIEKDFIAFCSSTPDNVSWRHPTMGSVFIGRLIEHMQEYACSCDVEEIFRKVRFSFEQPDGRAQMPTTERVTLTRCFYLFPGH
The test is described as follows: caspase-1 in vitro activation assay (secondary screening). In kind it is biochemical. The settings on record: preactivated recombinant caspase-1. On the procedure:
Recombinant caspase-1 (50 nM) was incubated with the indicated concentrations of compounds for 20 min at RT in Assay Buffer. Then fluorogenic substrate Ac-WEHD-AFC (80 µM) was added, and activity was monitored in a Wallac Victor workstation. Data are reported as the percentage of inhibition compared with the absence of the inhibitor.

Test [2] addresses T2, ASC-mediated PC1 activation (Homo sapiens, UniProt P29466).
T2 construct: His; made in house; host or cells: PC1: Sf9 insect cells (baculovirus)
T2 sequence (P29466 1-404): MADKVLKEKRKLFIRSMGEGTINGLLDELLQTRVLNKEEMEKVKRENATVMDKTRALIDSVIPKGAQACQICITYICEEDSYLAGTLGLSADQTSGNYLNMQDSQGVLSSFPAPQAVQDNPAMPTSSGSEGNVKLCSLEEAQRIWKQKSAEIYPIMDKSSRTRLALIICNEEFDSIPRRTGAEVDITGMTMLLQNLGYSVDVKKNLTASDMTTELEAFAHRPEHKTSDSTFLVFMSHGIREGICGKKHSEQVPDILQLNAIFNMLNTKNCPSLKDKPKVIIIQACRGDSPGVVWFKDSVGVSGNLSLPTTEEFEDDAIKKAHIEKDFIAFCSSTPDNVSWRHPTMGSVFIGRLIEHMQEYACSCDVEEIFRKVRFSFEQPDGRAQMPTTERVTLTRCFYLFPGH
As to the kind of experiment: ASC-mediated PC1 reconstitution in vitro assay (primary screening). The format is biochemical. On the procedure: Recombinant PC1 (50 nM) was preincubated with the indicated concentrations of compounds for 20 min at RT in Assay Buffer (20 mM HEPES pH 7.5, 10 mM KCI, 1.5 mM MgCl2, 1mM EDTA, 1 mM EGTA, 1 mM DTT). Then 300 nM of ASC were added and incubated for another 10 min period. Caspase-1 activation was measured using fluorogenic substrate Ac-WEHD-AFC (80 µM; Enzo Life Sciences) by continuously monitoring the release of the AFC (7-Amino-4-trifluoromethylcoumarin) product in a Wallac Victor workstation. The compounds were initially tested at 20 µM with 1% of DMSO. Data are reported as the percentage of inhibition compared with the absence of the compound.
The materials and methods employed in these experiments are now described.

A further test relates to NLRP3 inflammasome. As to the kind of experiment: murine peritoneal macrophages cellular assay, LPS plus ATP. The format is cell-based, Mice (BALB/c). On the procedure: Mice (BALB/c) were euthanized, and 5 ml of cold medium was injected (20G needle) into the peritoneal region. The aspirated fluid from peritoneum was centrifuged for 10 min at 400 × g and the cell pellet resuspended in DMEM/F12-10 (1 ml). 40000 cells/well were plated in 24-well plates. Cells were allowed to adhere to the plate by culturing them 2 h at 37°C and then, non-adherent cells were removed by gently washing three times with warm PBS. Macrophages were primed for 4 h with 100 ng/ml pure LPS (Alexis Biochemicals Corporation), in serum-free IMDM medium followed by 30 min with 5 mM ATP. Supernatants were harvested and clarified by centrifugation at 1500 rpm at RT and cytokine, and caspase-1 activation analysis was performed as previously described in Example 3.

The subject of another test is ASC oligomerization. As to the kind of experiment: ASC oligomerization assay (DSS crosslinking, immunoblotting). The format is cell-based, human. The settings on record: crosslinked pellets, LPS plus nigericin; MM01 10 µM, VX-765 5 µM. On the procedure: PMA-differentiated THP-1 cells were seeded at 1x10^6 cells/ml in 6-well plates. Cells were treated with compounds for 30 min, primed with 100 ng/ml LPS for 3h and then stimulated with 10 µM nigericin for 30 min. The supernatants were removed, cells were rinsed in ice-cold PBS and lysed in NP-40 buffer (20 mM HEPES-KOH pH 7.5, 150 mM KCL, 1% NP-40 plus protease inhibitors). Lysates were centrifuged at 330 × g for 10 min at 4 °C. The pellets were washed and resuspended in PBS plus 2 mM disuccinimidyl suberate (DSS) and incubated at RT for 30 min with rotation. Samples were then centrifuged at 330 × g for 10 min at 4 °C. The supernatant was removed, and the cross-linked pellets were resuspended in sample buffer, boiled and analyzed by immunoblotting.
On the technique in general: In western blotting, separated proteins are transferred to a membrane and probed.

For another test, the target named is T3, caspase-3 (Homo sapiens, UniProt P42574).
T3 sequence (P42574 29-277): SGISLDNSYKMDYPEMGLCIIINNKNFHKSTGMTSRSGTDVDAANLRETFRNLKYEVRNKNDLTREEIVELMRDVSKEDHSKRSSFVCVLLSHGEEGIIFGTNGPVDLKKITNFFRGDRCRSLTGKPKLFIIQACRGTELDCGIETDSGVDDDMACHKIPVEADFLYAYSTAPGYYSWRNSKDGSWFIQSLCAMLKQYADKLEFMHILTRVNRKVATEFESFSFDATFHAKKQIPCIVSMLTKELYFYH
The test is described as follows: Caspase-3 activation assay. In kind it is biochemical. The settings on record: recombinant caspase-3; MM01 5 µM (Figure 2A). On the procedure:
Compounds were incubated with caspase-3 (2 nM) in reaction buffer (100 mM NaCl, 50 mM Hepes pH 7.4, 10 mM DTT, 1 mM EDTA, 10% glycerol, 0.1% CHAPS) for 20 min at RT. Enzyme activity was spectrophotometrically monitored by adding Ac-DEVD-pNA (200 µM) substrate.

Where two headings read alike, the source gives them in different places.

Consider `C=CCN1C(=O)/C(=C2/C(=O)Nc3ccccc32)SC1=S` [MM01], for which the ASC speck formation result in test [1] is on record as “inhibited”. Besides, the caspase-1 activity entry at Recombinant caspase-1 is “do not act on”. Also, in test [2] (PC1 50 nM, ASC 300 nM, substrate Ac-WEHD-AFC, read-out: IC50), the IC50 (in general, the midpoint of a concentration-inhibition curve) came out at 500 ± 100 nM. Also, the IC50 result in test [2] (dose-response curve 0.04 to 40 µM (Figure 1B), stated in words) is recorded as “in the nanomolar range”. In test [2] (immunoblotting of PC1 processing (Figure 1C)), the “formation of p20 subunit” value is recorded as “decrease”. In addition, in the test on NLRP3 inflammasome, the TNF-α release result is listed as “not correlated with a significant reduction” and the “release of LDH” value was “decreased”. Moreover, in the test with NLRP3 inflammasome (at 5 and 10 µM of MM01), the IL-1β release entry is reported as “significant inhibition” and the IL-6 release result was “significant inhibition”. Also, the ASC oligomerization entry in the test with ASC oligomerization is “inhibited”. Further, at caspase-3, the caspase-3 activity entry was “do not act on”.

For the origin of these results see patent EP3884941A1, “INFLAMMASOME INHIBITORS AND USE THEREOF” (CENTRO DE INVESTIGACION PRINCIPE FELIPE, priority 2020, dated 2021).
